Laboratory results from patent publication US20210087640A1, “APPLICATION OF LARP7 GENE IN CANCER DIAGNOSIS AND TREATMENT” (SHANGHAI JIAO TONG UNIVERSITY, priority 2018, published 2021).
Like-named read-outs stand apart in the source and are kept apart here.

How the values were obtained:
HCC1937 xenograft tumor = assay: Radiotherapy and chemotherapy of xenograft tumor mice, HCC1937; format: in vivo; conditions: CDDP and radiation
[1] = tested on: MDA-MB-231 xenograft tumor; assay: Radiotherapy and chemotherapy of xenograft tumor mice, MDA-MB-231; format: in vivo; conditions: CDDP and radiation
[2] = tested on: cervical cancer cells Hela; assay: CCK8 cell viability experiment, Hela; format: cell-based
[3] = tested on: triple-negative breast cancer cells MDA-MB-231; assay: CCK8 cell viability experiment, MDA-MB-231; format: cell-based
MDA-MB-231 = assay: Clone formation experiment, MDA-MB-231; format: cell-based; conditions: LARP7 overexpression in MDA-MB-231 vs control
[4] = tested on: triple-negative breast cancer cells HCC1937; assay: CCK8 cell viability experiment, HCC1937; format: cell-based; conditions: read-out: IC50 (the concentration of drug required for 50% inhibition)
Hela = assay: Clone formation experiment, Hela; format: cell-based; conditions: LARP7 overexpression in Hela vs control

| IC50 ([2]; LARP7-knockdown (siLARP7, sgLARP7)) | IC50 ([2]; LARP7 overexpression) | IC50 ([2]; control group of LARP7-knockdown) | IC50 ([2]; control group of LARP7 overexpression) | IC50 ([3]; LARP7-overexpressing MDA-MB-231 cells) | IC50 ([3]; MDA-MB-231 control group (of LARP7 overexpression)) | IC50 ([4]; HCC1937 control group (of LARP7 knock-down)) | IC50 ([4]; LARP7-knock-down HCC1937 cells) | Structure (SMILES) | sensitivity of in vivo tumor tissue (HCC1937 xenograft tumor; HCC1937 cells (high LARP7 expression)) | sensitivity of in vivo tumor tissue (HCC1937 xenograft tumor; LARP7-knock-out HCC1937 cells (sgLARP7)) | sensitivity of in vivo tumor tissue ([1]; MDA-MB-231 cells (low LARP7 expression)) | sensitivity of in vivo tumor tissue ([1]; MDA-MB-231 cells with artificial LARP7 overexpression) | sensitivity of the cells by clone formation (MDA-MB-231) | sensitivity of the cells by clone formation (Hela) | IC50 ([2]; Homo sapiens, HeLa, LARP7 overexpression) | IC50 ([2]; Homo sapiens, HeLa, control group of LARP7 overexpression) | IC50 ([3]; Homo sapiens, MDA-MB-231, LARP7-overexpressing MDA-MB-231 cells) | IC50 ([3]; Homo sapiens, MDA-MB-231, MDA-MB-231 control group (of LARP7 overexpression)) | IC50 ([4]; Homo sapiens, HCC1937, HCC1937 control group (of LARP7 knock-down)) | IC50 ([4]; Homo sapiens, HCC1937, LARP7-knock-down HCC1937 cells) |
| --- | --- | --- | --- | --- | --- | --- | --- | --- | --- | --- | --- | --- | --- | --- | --- | --- | --- | --- | --- | --- |
| 55.8 ± 5.4 µM | 19.1 ± 6.9 µM | 31.4 ± 6 µM | 39.6 ± 2.5 µM | 76.3 ± 26.7 µM | 232 ± 83.9 µM | 102 ± 9.1 µM | 185 ± 20.5 µM | [NH2][Pt]([NH2])([Cl])[Cl] [CDDP, cisplatin] | sensitive | less sensitive | tolerant | significantly improved the sensitivity | significantly increases the sensitivity | significantly increases cell sensitivity |  |  |  |  |  |  |
|  |  |  |  |  |  |  |  | CO[C@@]12[C@H](COC(N)=O)C3=C(C(=O)C(C)=C(N)C3=O)N1C[C@@H]1N[C@@H]12 [MMS, mitomycin] |  |  |  |  |  |  | 123 ± 22 µM | 210 ± 21.6 µM | 262 ± 20.3 µM | 451 ± 29.4 µM | 247 ± 38.1 µM | 682 ± 123 µM |
